# Laboratory results as given in US10722587B2, “Composition for intracellular delivery containing adenovirus protein VI-derived peptide and anticancer pharmaceutical composition containing same” (priority 2015, dated 2020).
# Tested on: Hela cell line
# Assay: MTT assay, oncolytic capability and cytotoxicity
# Assay type: cell-based, human
# Conditions: 4 days
# Method: In this example, to confirm the adenoviral proliferation capability and oncolytic capability of Ad pDNA-polymer-peptide complexes, a complex was manufactured using polymer PAM-ABP and d pDNA containing viral DNA of H-Rd19-k35/DCN/shcMet, which is a tumor-selective oncolytic adenovirus expressing adenovirus DNA such as decorin (DCN) and shcMet. A human uterine cancer cell line, Hela cell line, was inoculated into a 12-well plate, and after 24 hours, treated with naked Ad pDNA, Ad pDNA/PAM-ABP, Ad pDNA/PAM-ABP/peptide complexes in which 6 types of peptides such as mVI, mVI-TAT, mVI-TAT-A, mVI-G-TAT-A, mVI-A-TAT and mVI-G-A-TAT were conjugated with Ad pDNA/PAM-ABP, and controls such as VI-9R and a complex with a TAT peptide. In addition, to verify cytotoxicity, the cells were treated with PAM-ABP or a peptide alone. Four days after the treatment, the culture solution was collected, and the number of adenovirus particles was detected using Q-PCR, and to verify oncolytic capability, 2 mg/ml of 3-(4,5-dimethylthiazol-2-yl)-2,5-diphenyl-tetrazolium bromide (MTT; Sigma Aldrich) in PBS was added at 200 μL to each well of the supernatant-removed plate, and cultured at 37° C. for 4 hours. Afterward, the supernatant was removed, the precipitate was dissolved in 1.0 ml dimethyl sulfoxide, the absorbance was analyzed by reading the plate at 540 nm on a microplate reader, and a non-treated cell group was classified as a negative control.
row,Compound,cytotoxicity of peptide alone
1,CC[C@H](C)[C@H](NC(=O)CNC(=O)[C@H](CO)NC(=O)[C@H](Cc1c[nH]c2ccccc12)NC(=O)[C@H](CC(C)C)NC(=O)[C@H](CO)NC(=O)CNC(=O)[C@H](Cc1c[nH]c2ccccc12)NC(=O)[C@H](CO)NC(=O)[C@H](Cc1ccccc1)NC(=O)[C@H](C)N)C(=O)N[C@@H](CCCCN)C(=O)N[C@@H](CC(N)=O)C(=O)N[C@@H](Cc1ccccc1)C(=O)NCC(=O)N[C@@H](C)C(=O)N[C@@H](CC(C)C)C(=O)N[C@@H](C)C(=O)N[C@@H](CCC(=O)O)C(=O)N[C@@H](CCCNC(=N)N)C(=O)N[C@@H](CCCCN)C(=O)N[C@@H](CCCCN)C(=O)N[C@@H](CCCNC(=N)N)C(=O)N[C@@H](CCCNC(=N)N)C(=O)N[C@@H](CCC(N)=O)C(=O)N[C@@H](CCCNC(=N)N)C(=O)N[C@@H](CCCNC(=N)N)C(=O)N[C@@H](CCCNC(=N)N)C(=O)O [mVI-A-TAT],relatively high cytotoxicity
2,CC[C@H](C)[C@H](NC(=O)CNC(=O)[C@H](CO)NC(=O)[C@H](Cc1c[nH]c2ccccc12)NC(=O)[C@H](CC(C)C)NC(=O)[C@H](CO)NC(=O)CNC(=O)[C@H](Cc1c[nH]c2ccccc12)NC(=O)[C@@H](N)CO)C(=O)N[C@@H](CCCCN)C(=O)N[C@@H](CC(N)=O)C(=O)N[C@@H](Cc1ccccc1)C(=O)NCC(=O)N[C@@H](CCCNC(=N)N)C(=O)N[C@@H](CCCNC(=N)N)C(=O)N[C@@H](CCCNC(=N)N)C(=O)N[C@@H](CCCNC(=N)N)C(=O)N[C@@H](CCCNC(=N)N)C(=O)N[C@@H](CCCNC(=N)N)C(=O)N[C@@H](CCCNC(=N)N)C(=O)N[C@@H](CCCNC(=N)N)C(=O)N[C@@H](CCCNC(=N)N)C(=O)O [VI-9R],high cytotoxicity
3,CC[C@H](C)[C@H](NC(=O)CNC(=O)[C@H](CO)NC(=O)[C@H](Cc1c[nH]c2ccccc12)NC(=O)[C@H](CC(C)C)NC(=O)[C@H](CO)NC(=O)CNC(=O)[C@H](Cc1c[nH]c2ccccc12)NC(=O)[C@H](CO)NC(=O)[C@H](Cc1ccccc1)NC(=O)[C@H](C)N)C(=O)N[C@@H](CCCCN)C(=O)N[C@@H](CC(N)=O)C(=O)N[C@@H](Cc1ccccc1)C(=O)NCC(=O)N[C@@H](Cc1ccccc1)C(=O)N[C@@H](CC(C)C)C(=O)NCC(=O)N[C@@H](CCCNC(=N)N)C(=O)N[C@@H](CCCCN)C(=O)N[C@@H](CCCCN)C(=O)N[C@@H](CCCNC(=N)N)C(=O)N[C@@H](CCCNC(=N)N)C(=O)N[C@@H](CCC(N)=O)C(=O)N[C@@H](CCCNC(=N)N)C(=O)N[C@@H](CCCNC(=N)N)C(=O)N[C@@H](CCCNC(=N)N)C(=O)N[C@@H](C)C(=O)N[C@@H](CC(C)C)C(=O)N[C@@H](C)C(=O)N[C@@H](CCC(=O)O)C(=O)O [mVI-G-TAT-A],relatively high cytotoxicity
4,CC[C@H](C)[C@H](NC(=O)CNC(=O)[C@H](CO)NC(=O)[C@H](Cc1c[nH]c2ccccc12)NC(=O)[C@H](CC(C)C)NC(=O)[C@H](CO)NC(=O)CNC(=O)[C@H](Cc1c[nH]c2ccccc12)NC(=O)[C@H](CO)NC(=O)[C@H](Cc1ccccc1)NC(=O)[C@H](C)N)C(=O)N[C@@H](CCCCN)C(=O)N[C@@H](CC(N)=O)C(=O)N[C@@H](Cc1ccccc1)C(=O)NCC(=O)N[C@@H](Cc1ccccc1)C(=O)N[C@@H](CC(C)C)C(=O)NCC(=O)N[C@@H](C)C(=O)N[C@@H](CC(C)C)C(=O)N[C@@H](C)C(=O)N[C@@H](CCC(=O)O)C(=O)N[C@@H](CCCNC(=N)N)C(=O)N[C@@H](CCCCN)C(=O)N[C@@H](CCCCN)C(=O)N[C@@H](CCCNC(=N)N)C(=O)N[C@@H](CCCNC(=N)N)C(=O)N[C@@H](CCC(N)=O)C(=O)N[C@@H](CCCNC(=N)N)C(=O)N[C@@H](CCCNC(=N)N)C(=O)N[C@@H](CCCNC(=N)N)C(=O)O [mVI-G-A-TAT],relatively high cytotoxicity
5,CC[C@H](C)[C@H](NC(=O)CNC(=O)[C@H](CO)NC(=O)[C@H](Cc1c[nH]c2ccccc12)NC(=O)[C@H](CC(C)C)NC(=O)[C@H](CO)NC(=O)CNC(=O)[C@H](Cc1c[nH]c2ccccc12)NC(=O)[C@H](CO)NC(=O)[C@H](Cc1ccccc1)NC(=O)[C@H](C)N)C(=O)N[C@@H](CCCCN)C(=O)N[C@@H](CC(N)=O)C(=O)N[C@@H](Cc1ccccc1)C(=O)NCC(=O)O [mVI],relatively high cytotoxicity
